Results on five molecules are retold here after article PMC5926414 (Japanese Journal of Cancer Research : Gann, 2000).

Read-outs that look alike come from different tables or passages of the source. Square brackets hold non-standard residues; d marks the D form. Peptide text beside a SMILES is read from it. * marks the point of attachment. X1 = COC1=CC(=O)N(C(=O)[C@@H](O*)C(C)C)[C@H]1Cc1ccccc1; NMe2Val = CC(C)[C@@H](C(=O)*)N(C)C; NMeV = CN[C@H](C(=O)O)C(C)C

Assay [1] has as its target T1, porcine brain microtubule protein (Sus scrofa, UniProt P02550+P02554). Nature of the assay: biochemical.
The target of assay [2] is T1, porcine brain microtubule protein. Nature of the assay: biochemical. To be noted: read-out: inhibition of microtubule polymerization, agent alone.
Assay [3] concerns porcine brain tubulin. In kind it is binding.
Assay [4] relates to porcine brain tubulin. The settings on record: ref 28 (Huang et al.); cited from earlier work.
Assay [5] deals with T2, porcine brain tubulin (Sus scrofa, UniProt P02550+P02554). Nature of the assay: biochemical. In kind it is binding.
T2 sequence (P02550 whole entry): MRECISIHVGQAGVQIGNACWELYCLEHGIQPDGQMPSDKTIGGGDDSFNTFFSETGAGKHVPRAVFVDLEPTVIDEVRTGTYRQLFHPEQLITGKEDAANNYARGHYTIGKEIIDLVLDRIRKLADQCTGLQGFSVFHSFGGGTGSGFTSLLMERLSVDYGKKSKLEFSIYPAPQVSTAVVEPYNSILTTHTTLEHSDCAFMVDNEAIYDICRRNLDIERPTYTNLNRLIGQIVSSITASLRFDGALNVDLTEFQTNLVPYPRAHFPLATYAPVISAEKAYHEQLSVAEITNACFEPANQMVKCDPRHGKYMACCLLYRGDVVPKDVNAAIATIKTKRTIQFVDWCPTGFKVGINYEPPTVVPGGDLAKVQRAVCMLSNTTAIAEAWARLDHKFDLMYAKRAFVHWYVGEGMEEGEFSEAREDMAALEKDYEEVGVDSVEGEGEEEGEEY
T2 sequence (P02554 whole entry): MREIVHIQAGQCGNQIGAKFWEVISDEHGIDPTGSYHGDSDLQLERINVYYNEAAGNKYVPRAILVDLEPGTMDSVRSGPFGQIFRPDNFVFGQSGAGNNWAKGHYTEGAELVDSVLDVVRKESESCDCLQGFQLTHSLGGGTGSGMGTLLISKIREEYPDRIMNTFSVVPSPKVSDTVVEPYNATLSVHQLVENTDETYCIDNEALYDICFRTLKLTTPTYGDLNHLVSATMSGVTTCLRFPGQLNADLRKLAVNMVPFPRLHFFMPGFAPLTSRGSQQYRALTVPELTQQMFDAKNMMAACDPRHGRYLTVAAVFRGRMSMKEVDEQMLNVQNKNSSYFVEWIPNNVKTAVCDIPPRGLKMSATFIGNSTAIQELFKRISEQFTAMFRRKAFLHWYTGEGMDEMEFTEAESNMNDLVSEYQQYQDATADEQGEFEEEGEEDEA
The subject of assay [6] is porcine brain tubulin. Format: biochemical.
Assay [7] concerns the target T2, porcine brain tubulin. In kind it is binding.
The target in assay [8] is T3, bovine brain tubulin (Bos taurus, UniProt P81947+Q6B856). Kind of assay: biochemical.
T3 sequence (P81947 whole entry): as the sequence (P02550 whole entry) above, with S136L, G232S, A265I, T340S, E358Q counted along it
T3 sequence (Q6B856 whole entry): as the sequence (P02554 whole entry) above, with A55T, V170M, A296S, V316I, G440E, E441G counted along it
Assay [9] has as its target T3, bovine brain tubulin. The settings on record: read-out: IC50, inhibition of monosodium glutamate-induced tubulin polymerization; in 4% DMSO; ref 8 (Bai et al.); cited from earlier work.

T1 sequence (P02550 whole entry): as the sequence (P02550 whole entry) above
T1 sequence (P02554 whole entry): as the sequence (P02554 whole entry) above

In the case of `CC[C@]1(O)C[C@@H]2CN(CCc3c([nH]c4ccccc34)[C@@](C(=O)OC)(c3cc4c(cc3OC)N(C)[C@H]3[C@@](O)(C(=O)OC)[C@H](OC(C)=O)[C@]5(CC)C=CCN6CC[C@]43[C@@H]65)C2)C1` [VLB, vinblastine], in [1], the midpoint of inhibition, the IC50, lay at 2700 ± 600 nM and the “inhibitory effect on microtubule polymerization at high concentration” value is “slight decrease in inhibitory effect”. Also, the inhibition at 3 µM in assay [2] is 64.7%. In addition, the “inhibition of [3H]GTP binding to tubulin” value in assay [3] is listed as “no inhibitory effect”. Further, in assay [4], the “concentration with inhibitory effect on the binding of GTP to tubulin” value is listed as “above 100 M”. In addition, in assay [5], the “Bmax, binding to tubulin (one binding site)” value is given as 6.0±0.26 nM/mg protein and the Kd stood at 200 ± 40 nM. The “inhibition of GTP hydrolysis on tubulin” value in assay [6] is listed as “concentration-dependent inhibition”. Besides, the “displacement of [3H]TZT-1027 on tubulin” value in [7] is “only incompletely”. In addition, in [8], the IC50 came to 600 nM and the “effect on tubulin polymerization at high concentration” value is given as “aggregation”.
In the case of `CC(=O)O[C@H]1C(=O)[C@@]2(C)[C@H]([C@H](OC(=O)c3ccccc3)[C@]3(O)C[C@H](OC(=O)[C@H](O)[C@@H](NC(=O)c4ccccc4)c4ccccc4)C(C)=C1C3(C)C)[C@]1(OC(C)=O)CO[C@@H]1C[C@@H]2O` [PTX, paclitaxel], in assay [7], the “displacement of [3H]TZT-1027 on tubulin” value is “did not have remarkable inhibitory effects” and the “displacement of [3H]VLB on tubulin” value is on record as “did not have remarkable inhibitory effects”.
Take `COC1=CC(=O)N(C(=O)[C@@H](OC(=O)[C@@H]2CCCN2C(=O)[C@@H]2CCCN2C(=O)[C@H](C(C)C)N(C)C(=O)[C@@H](NC(=O)[C@H](C(C)C)N(C)C)C(C)C)C(C)C)[C@H]1Cc1ccccc1` [dolastatin 15] (NMe2Val-V[NMeV]PP-X1): the “inhibition of GTP hydrolysis on tubulin” value in [6] is “concentration-dependent inhibition”. Besides, in assay [7], the “displacement of [3H]TZT-1027 on tubulin” value was “did not have remarkable inhibitory effects” and the “displacement of [3H]VLB on tubulin” value is listed as “did not have remarkable inhibitory effects”.
With `CC[C@]1(O)C[C@H]2CN(CCc3c([nH]c4ccccc34)[C@@](C(=O)OC)(c3cc4c(cc3OC)N(C=O)[C@H]3[C@@](O)(C(=O)OC)[C@H](OC(C)=O)[C@]5(CC)C=CCN6CC[C@]43[C@@H]65)C2)C1` [VCR, vincristine], in assay [1], the IC50 was determined as 1600 ± 400 nM and the “inhibitory effect on microtubule polymerization at high concentration” value is given as “slight decrease in inhibitory effect”. In [7], the “displacement of [3H]TZT-1027 on tubulin” value is “the displacement was not complete”.
The molecule `CC[C@H](C)[C@@H]([C@@H](CC(=O)N1CCC[C@H]1[C@H](OC)[C@@H](C)C(=O)N[C@@H](Cc1ccccc1)c1nccs1)OC)N(C)C(=O)[C@@H](NC(=O)[C@H](C(C)C)N(C)C)C(C)C` [dolastatin 10] came in with an IC50 in assay [1] of 2300 ± 700 nM. Moreover, the IC50 in [9] was 1200 nM. For the same molecule, in assay [3], the “inhibition of [3H]GTP binding to tubulin” value is “concentration-dependent inhibition”. In assay [6], the “inhibition of GTP hydrolysis on tubulin” value is “concentration-dependent inhibition”. Also, in assay [7], the “displacement of [3H]TZT-1027 on tubulin” value is “completely displaced” and the “displacement of [3H]VLB on tubulin” value is “completely displaced”. In addition, in assay [8], 2800 nM corresponded to half-maximal inhibition (IC50) and the “effect on tubulin polymerization at high concentration” value is recorded as “no further increase in inhibition”. In [8] (read-out: inhibition of monosodium glutamate-induced tubulin polymerization), the inhibition at 3 µM came out at 88%.
